Test [1] deals with C57BL/6 mice. Briefly: rhPBEF challenge in limited ventilator-induced lung injury model (VILIa, 30 ml/kg). It is filed as in vivo, mouse. How it is done:
(§1) The first VILI model was designed to produce limited lung injury (VILIa, tidal volume 30 ml/kg), thus allowing assessment of potential synergy with rhPBEF challenge. Male C57BL/6J B6 mice were anesthetized with ketamine/acepromazine, intubated and administered rhPBEF (20 μg/mouse) via an intratracheal (IT) route ˜30 min before ventilator placement (room air, tidal volume 30 ml/kg, 65 breaths/minute, 0 cm H2O PEEP) for 4 hr as previously described (Nonas et al., 2007; Moitra et al., 2007). Groups included a spontaneous breathing group (SB), a spontaneous breathing group challenged with rhPBEF (SB-rhPBEF), a high tidal ventilation group (VILIa), and a high tidal ventilation group with rhPBEF challenge (VILIa-rhPBEF) (n=4-6 all groups).
(§2) BAL fluid recovered as we previously described was used for multiple assays including total BAL protein, and BAL cell differentials (Peng et al., 2004). Tissue albumin content was assessed as previously described (Nonas et al., 2007). Cytokine levels in BAL fluid (IL-1β, IL-6, KC, MIP2, TNF-α) were analyzed by multiplex assays (Bio-Rad, Hercules, Calif., USA). BAL PBEF levels were assayed by a C-terminal ELISA (Phoenix Pharmaceuticals Inc. Belmont, Calif.) and analyzed using the SoftmaxPRO software (Molecular Devices Corp). (See Supplemental Methods).
(§3) We utilized two experimental models of ventilator-induce lung injury in these experiments. Our first approach (VILIa) utilized a VILI protocol with a tidal volume of 30 ml/kg designed to produce limited lung injury in order to allow assessment of potential synergism between delivered PBEF and mechanical ventilation-induced lung injury. Male C57BL/6J mice (8-12 wk old, 24.7±2.0 g) were weighed, anesthetized with ketamine/acepromazine, intubated using a 20 gauge catheter (Medex, Inc, Carlsbad, Calif.) and administered recombinant PBEF (20 μg/mouse in 1.5 μl water per gram body weight or vehicle equal volumes of water) via an intratracheal (IT) route ˜30 min before being placed on mechanical ventilation as we have previously described (Peng et al., 2004). Mice were then connected to Harvard Apparatus ventilator (Boston, Mass.) at room air, tidal volume of 30 ml/kg, 65 breaths/minute, and positive expiratory pressure (PEEP) 0 cm H2O for 4 hr. Groups of mice were randomly allocated to either the spontaneous breathing group (SB) (n=4), the spontaneous breathing challenged with IT rhPBEF group (SB-rhPBEF) (n=6), the high tidal ventilation group (VILIa) (n=6), or high tidal ventilation with rhPBEF group (VILIa-rhPBEF) (n=6). Normal saline (0.2 cc) was given via intraperitoneal injection at the beginning and 2 hours later to all ventilated mice and peak inspiratory pressure was monitored continuously. Temperature was maintained with heat blanket to all mice during experiment.
(§4) Mice underwent bronchioalveolar lavage (BAL) of both lungs with Hank's balanced salt solution (1 mL/mouse), and the recovered BAL fluid was used for assays as we have previously described (Peng et al., 2004). Total protein was measured using the Bio-Rad DC Protein Assay (Bio-Rad Laboratories, Hercules, Calif.) (Peng et al., 2004). Protein results were expressed as mg/ml to allow for comparison to other studies. Lavage samples were centrifuged at 500×g on a refrigerated micro centrifuge for 20 min. The supernatant was decanted and aliquot for protein assays. The BAL cells were resuspended in Hank's balanced salt solution and counted using a hemacytometer using standard techniques.
(§5) Re-suspended BAL cells from lung lavage were centrifuged using a Shandon Cytospin-2 at 600 RPM for 15 min, fixed by air-drying, and stained with Diff-Quik dye for differential counts (Peng et al., 2004). Stained cell slides were evaluated and differentially counted for each individual animal (lymphocyte, neutrophil or a macrophage).
(§6) BAL fluid for cytokine measurements was stored at −80° C. until analysis. […]

In test [2] the test system is C57BL/6 mice. Nature of the test: Intratracheal rhPBEF instillation in spontaneously breathing mice (BAL, tissue albumin, cytokines, histology). It is filed as in vivo, mouse. How it is done: as §1, §2
as §3, with “([…]” for “(20 μg/mouse in 1.5 μl water per gram body weight or vehicle equal volumes”
as §4, §5, §6

Setting [3] is: spontaneously breathing mice, rhPBEF.

Entries after “also recorded” stand apart in the source; their conditions may differ.

As to “rhPBEF: Recombinant human soluble PBEF/visfatin, a 52 kDa protein containing 465 amino acid residues, purchased from PeproTech”, in the test with C57BL/6 mice [1], the “BAL IL-1β” value was 53 ± 4 pg/mL, the “BAL IL-6” value was determined as 957 ± 103 pg/mL, the “BAL KC” value came to 2310 ± 263 pg/mL and the “BAL MIP-2” value worked out at 30480 ± 219 pg/mL. Moreover, the “BAL TNF-α” value with C57BL/6 mice [1] came to 985 ± 293 pg/mL. In addition, in the test on C57BL/6 mice [1] (20 μg rhPBEF), the “BAL cytospin (400×)” value is on record as “dramatic influx of neutrophils into the alveolar space”. Moreover, the “histologic assessment of lung tissue (hematoxylin and eosin)” value in the test with C57BL/6 mice [1] (intratracheal rhPBEF 30 min prior to mechanical ventilation for 4 hr) was “greater alveolar wall thickening, and neutrophil infiltration into the lung interstitium and alveolar space; also recorded: dramatically augmented”. Besides, in the test on C57BL/6 mice [2] (SB-rhPBEF), the “BAL IL-1β” value was 55 ± 22 pg/mL and the “BAL TNF-α” value is 262 ± 94 pg/mL. Further, in the test on C57BL/6 mice [2] (SB-rhPBEF, 20 μg/mouse in 30 μl saline intratracheal), the “histologic assessment of lung tissue (hematoxylin and eosin)” value was “mild inflammation; also recorded: macrophage & neutrophil infiltration and edematous alveolar areas”. For the same substance, in the test on C57BL/6 mice [2] (setting [3]), the “BAL IL-6” value is 319 ± 67 pg/mL, the “BAL KC” value stood at 1388 ± 169 pg/mL and the “BAL MIP-2” value was 29026 ± 762 pg/mL.

The record behind these values is US9409983B2, “Methods and compositions involving PBEF inhibitors for lung inflammation conditions and diseases” (The Board of Trustess of the University of Illinois, priority 2009, dated 2016).
